In patent publication US20250346592A1 (Celgene Corporation, priority 2022, published 2025) one finds IC50 data, which are given here for 23 molecules.

The target of the assay is hPAD4 enzyme (Homo sapiens (Human), UniProt Q9UM07). The assay can be described thus: RFMS2 assay (RapidFire mass spectrometry, TSTGGRQGSHH peptide substrate). It is filed as biochemical. As to conditions: 35 nM recombinant human PAD4, 500 μM TSTGGRQGSHH peptide, 30 minutes at room temperature; read-out: RFMS 2 IC50. As to the method: Stock compounds were dissolved and stored in 100% DMSO. Compound solutions were prepared via serial dilution at 3-fold intervals in DMSO with top compound concentration at 20 μM in each assay. 0.25 μl of compound solution was transferred from the compound plate to the assay plate by using an acoustic dispenser.
• Total reaction volume: 25 μl • Assay buffer: […] pH 7.4, 200 mM NaCl, 2 mM CaCl2, 5 mM DTT • 35 nM recombinant human PAD4 • 500 μM TSTGGRQGSHH peptide • 1.2% DMSO • Stop solution: 10% formic acid
Reaction mixtures were incubated at room temperature for 30 minutes. 10 μl each of the reaction mixtures was then mixed with 40 μl of 10% formic acid in a microtiter plate. The plate was frozen at −80° C. before shipping out on dry ice for RapidFire mass spectroscopy analysis.
Thawed samples were loaded onto the Rapid Fire 300 system (Agilent) wherein they were first sipped for 250 ms and then loaded onto a Agilent “C” (C18) cartridge using a mobile phase of water containing 0.09% formic acid/0.01% trifluoroacetic acid for 3000 ms desalting flowing at a rate of 1.5 ml/min. Once the samples were loaded and washed, a mobile phase of acetonitrile containing 0.09% formic acid/0.01% trifluoroacetic acid was used to elute the samples directly onto a Sciex API4000 triple quadrupole mass spectrometer for 3000 ms at a flow rate of 1.25 ml/min.
MRM transitions for substrate and product were monitored in positive ESI mode at m/z=562.3/969.7 and m/z=562.8/541.3 respectively. The dwell time for each transition was set at 100 ms, and the ESI voltage was used at 5500 with a source temperature of 650° C. Extracted ion peaks for each transition were integrated using the Rapid Fire Integrator software.
Compounds having an activity designated as “A” provided an IC50≤10 nM; compounds having an activity designated as “B” provided an IC50 11-100 nM; compounds having an activity designated as “C” provided an IC50 101-500 nM; compounds having an activity designated as “D” provided an IC50 501-1000 nM; compounds having an activity designated as “E” provided an IC50>1000 nM.

Some results are limits rather than exact numbers.

Sequence of hPAD4 enzyme (Q9UM07 whole entry): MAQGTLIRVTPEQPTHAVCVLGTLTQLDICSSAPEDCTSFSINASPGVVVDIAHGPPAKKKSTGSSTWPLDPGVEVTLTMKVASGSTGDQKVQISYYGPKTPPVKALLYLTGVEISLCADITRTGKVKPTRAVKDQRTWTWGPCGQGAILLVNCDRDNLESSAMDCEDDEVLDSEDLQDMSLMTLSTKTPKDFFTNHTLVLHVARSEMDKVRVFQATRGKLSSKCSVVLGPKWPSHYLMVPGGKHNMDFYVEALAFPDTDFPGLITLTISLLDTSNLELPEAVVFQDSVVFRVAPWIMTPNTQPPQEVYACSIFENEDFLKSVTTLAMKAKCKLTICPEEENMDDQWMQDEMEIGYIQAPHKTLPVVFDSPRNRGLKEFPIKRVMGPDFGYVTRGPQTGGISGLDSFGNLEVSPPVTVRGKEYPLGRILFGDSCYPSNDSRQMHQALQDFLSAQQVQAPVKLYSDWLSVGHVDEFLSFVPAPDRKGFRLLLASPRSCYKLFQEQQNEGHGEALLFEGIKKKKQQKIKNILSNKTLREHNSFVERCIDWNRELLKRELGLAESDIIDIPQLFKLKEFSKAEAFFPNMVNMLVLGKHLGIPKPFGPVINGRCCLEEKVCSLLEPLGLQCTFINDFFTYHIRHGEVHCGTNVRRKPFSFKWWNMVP

For the molecule `COc1nccc2cc(-c3nc4cc5c(cc4n3C)CCN(C[C@@H](C)N)C5=O)n(CC3CC3)c12` [Example 31, (R)-6-(2-aminopropyl)-2-(1-(cyclopropylmethyl)-7-methoxy-1H-pyrrolo[2,3-c]pyridin-2-yl)-1-methyl-1,6,7,8-tetrahydro-5H-imidazo[4,5-g]isoquinolin-5-one], the half-maximal inhibitory concentration (IC50) was 501 to 1000 nM.

As to `C[C@@H](N)CN1CCc2cc3c(cc2C1=O)nc(-c1cc2ccc(C#N)cc2n1CC1CC1)n3C` [Example 32], the half-inhibitory concentration (IC50) is 101 to 500 nM.

As to `C[C@@H](N)CN1CCc2cc3c(cc2C1=O)nc(-c1cc2cccc(Cl)c2n1CC1CC1)n3C` [Example 33, (R)-6-(2-aminopropyl)-2-(7-chloro-1-(cyclopropylmethyl)-1H-indol-2-yl)-1-methyl-1,6,7,8-tetrahydro-5H-imidazo[4,5-g]isoquinolin-5-one], the IC50 was 101 to 500 nM.

Regarding `C[C@@H](N)CN1CCc2cc3c(cc2C1=O)nc(-c1cc2cc(Cl)ccc2n1CC1CC1)n3C` [Example 34, (R)-6-(2-aminopropyl)-2-(5-chloro-1-(cyclopropylmethyl)-1H-indol-2-yl)-1-methyl-1,6,7,8-tetrahydro-5H-imidazo[4,5-g]isoquinolin-5-one], the IC50 is 501 to 1000 nM. As for `C[C@@H](N)CN1CCc2cc3c(cc2C1=O)nc(-c1cc2cccc(C(F)(F)F)c2n1CC1CC1)n3C` [Example 36, (R)-6-(2-aminopropyl)-2-(1-(cyclopropylmethyl)-7-(trifluoromethyl)-1H-indol-2-yl)-1-methyl-1,6,7,8-tetrahydro-5H-imidazo[4,5-g]isoquinolin-5-one], the IC50 lay in the range of 501 to 1000 nM. Then `CN[C@H](C)CN1CCc2cc3c(cc2C1=O)nc(-c1cc2cccc(OC)c2n1CC1CC1)n3C` [Example 37, (R)-2-(1-(cyclopropylmethyl)-7-methoxy-1H-indol-2-yl)-1-methyl-6-(2-(methylamino)propyl)-1,6,7,8-tetrahydro-5H-imidazo[4,5-g]isoquinolin-5-one], with 101 to 500 nM. Turning to `CC(C)c1ccc2cc(-c3nc4cc5c(cc4n3C)CCN(C[C@@H](C)N)C5=O)n(CC3CC3)c2c1` [Example 38, (R)-6-(2-aminopropyl)-2-(1-(cyclopropylmethyl)-6-isopropyl-1H-indol-2-yl)-1-methyl-1,6,7,8-tetrahydro-5H-imidazo[4,5-g]isoquinolin-5-one], the IC50 was 101 to 500 nM. For `CCc1ccc2cc(-c3nc4cc5c(cc4n3C)CCN(C[C@@H](C)N)C5=O)n(CC3CC3)c2c1` [Example 39, (R)-6-(2-aminopropyl)-2-(1-(cyclopropylmethyl)-6-ethyl-1H-indol-2-yl)-1-methyl-1,6,7,8-tetrahydro-5H-imidazo[4,5-g]isoquinolin-5-one], the IC50 lay in the range of 101 to 500 nM.

For the molecule `C[C@@H](N)CN1CCc2cc3c(cc2C1=O)nc(-c1cc2ccc(C4COC4)cc2n1CC1CC1)n3C` [Example 42, (R)-6-(2-aminopropyl)-2-(1-(cyclopropylmethyl)-6-(oxetan-3-yl)-1H-indol-2-yl)-1-methyl-1,6,7,8-tetrahydro-5H-imidazo[4,5-g]isoquinolin-5-one], the IC50 lay within 501 to 1000 nM. Then `C[C@@H](N)CN1CCc2cc3c(cc2C1=O)nc(-c1cc2ccc(Cl)nc2n1CC1CC1)n3C` [Example 43, (R)-6-(2-aminopropyl)-2-(6-chloro-1-(cyclopropylmethyl)-1H-pyrrolo[2,3-b]pyridin-2-yl)-1-methyl-1,6,7,8-tetrahydro-5H-imidazo[4,5-g]isoquinolin-5-one], with 101 to 500 nM; and `COc1ccc2cc(-c3nc4cc5c(cc4n3C)CCN(C[C@@H](C)N)C5=O)n(CC3CC3)c2n1` [Example 44, (R)-6-(2-aminopropyl)-2-(1-(cyclopropylmethyl)-6-methoxy-1H-pyrrolo[2,3-b]pyridin-2-yl)-1-methyl-1,6,7,8-tetrahydro-5H-imidazo[4,5-g]isoquinolin-5-one], with 101 to 500 nM. Take `C[C@@H](N)CN1CCc2cc3c(cc2C1=O)nc(-c1cc2ccc(=O)[nH]c2n1CC1CC1)n3C` [Example 45, (R)-6-(2-aminopropyl)-2-(1-(cyclopropylmethyl)-6-oxo-6,7-dihydro-1H-pyrrolo[2,3-b]pyridin-2-yl)-1-methyl-1,6,7,8-tetrahydro-5H-imidazo[4,5-g]isoquinolin-5-one]: the IC50 is greater than 1000 nM. As to `C[C@@H](N)CN1CCc2cc3c(cc2C1=O)nc(-c1c(F)c2ccccc2n1CC1CC1)n3C` [Example 46, (R)-6-(2-aminopropyl)-2-(1-(cyclopropylmethyl)-3-fluoro-1H-indol-2-yl)-1-methyl-1,6,7,8-tetrahydro-5H-imidazo[4,5-g]isoquinolin-5-one], the IC50 is 501 to 1000 nM. With `Cc1ccc2cc(-c3nc4cc5c(cc4n3C)CCN(C[C@H](N)CF)C5=O)n(CC3CC3)c2c1` [Example 47, (S)-6-(2-amino-3-fluoropropyl)-2-(1-(cyclopropylmethyl)-6-methyl-1H-indol-2-yl)-1-methyl-1,6,7,8-tetrahydro-5H-imidazo[4,5-g]isoquinolin-5-one] the figure was 101 to 500 nM; with `Cn1c(-c2cc3cccnc3n2CC2CC2)nc2cc3c(cc21)CCN(C[C@H](N)CF)C3=O` [Example 49, (S)-6-(2-amino-3-fluoropropyl)-2-(1-(cyclopropylmethyl)-1H-pyrrolo[2,3-b]pyridin-2-yl)-1-methyl-1,6,7,8-tetrahydro-5H-imidazo[4,5-g]isoquinolin-5-one], greater than 1000 nM; with `COc1ccc2cc(-c3nc4cc5c(cc4n3C)CCN(C[C@H](N)CF)C5=O)n(CC3CC3)c2c1` [Example 50, (S)-6-(2-amino-3-fluoropropyl)-2-(1-(cyclopropylmethyl)-6-methoxy-1H-indol-2-yl)-1-methyl-1,6,7,8-tetrahydro-5H-imidazo[4,5-g]isoquinolin-5-one], 101 to 500 nM. With `CC(C)c1ccc2cc(-c3nc4cc5c(cc4n3C)CCN(C[C@H](N)CF)C5=O)n(CC3CC3)c2c1` [Example 51, (S)-6-(2-amino-3-fluoropropyl)-2-(1-(cyclopropylmethyl)-6-isopropyl-1H-indol-2-yl)-1-methyl-1,6,7,8-tetrahydro-5H-imidazo[4,5-g]isoquinolin-5-one] the figure was 101 to 500 nM; with `Cn1c(-c2cc3ccncc3n2CC2CC2)nc2cc3c(cc21)CCN(C[C@H](N)CF)C3=O` [Example 52, (S)-6-(2-amino-3-fluoropropyl)-2-(1-(cyclopropylmethyl)-1H-pyrrolo[2,3-c]pyridin-2-yl)-1-methyl-1,6,7,8-tetrahydro-5H-imidazo[4,5-g]isoquinolin-5-one], greater than 1000 nM. Then `COc1nccc2cc(-c3nc4cc5c(cc4n3C)CCN(C[C@H](N)CF)C5=O)n(CC3CC3)c12` [Example 54, (S)-6-(2-amino-3-fluoropropyl)-2-(1-(cyclopropylmethyl)-7-methoxy-1H-pyrrolo[2,3-c]pyridin-2-yl)-1-methyl-1,6,7,8-tetrahydro-5H-imidazo[4,5-g]isoquinolin-5-one], with 501 to 1000 nM. In the case of `Cn1c(-c2cc3ccc(C(C)(C)C)cc3n2CC2CC2)nc2cc3c(cc21)CCN(C[C@H](N)CF)C3=O` [Example 55, (S)-6-(2-amino-3-fluoropropyl)-2-(6-(tert-butyl)-1-(cyclopropylmethyl)-1H-indol-2-yl)-1-methyl-1,6,7,8-tetrahydro-5H-imidazo[4,5-g]isoquinolin-5-one], the IC50 was in the range of 501 to 1000 nM. In the case of `Cn1c(-c2cc3ccc(Cl)nc3n2CC2CC2)nc2cc3c(cc21)CCN(C[C@H](N)CF)C3=O` [Example 56, (S)-6-(2-amino-3-fluoropropyl)-2-(6-chloro-1-(cyclopropylmethyl)-1H-pyrrolo[2,3-b]pyridin-2-yl)-1-methyl-1,6,7,8-tetrahydro-5H-imidazo[4,5-g]isoquinolin-5-one], the IC50 fell in the range of 101 to 500 nM.

For the molecule `Cn1c(-c2cc3ccc(C4CC4)nc3n2CC2CC2)nc2cc3c(cc21)CCN(C[C@H](N)CF)C3=O` [Example 59, (S)-6-(2-amino-3-fluoropropyl)-2-(6-cyclopropyl-1-(cyclopropylmethyl)-1H-pyrrolo[2,3-b]pyridin-2-yl)-1-methyl-1,6,7,8-tetrahydro-5H-imidazo[4,5-g]isoquinolin-5-one], the IC50 lay within 101 to 500 nM. Consider `COc1ccc2cc(-c3nc4cc5c(cc4n3C)CCN(C[C@H](N)CF)C5=O)n(CC3CC3)c2n1` [Example 62, (S)-6-(2-amino-3-fluoropropyl)-2-(1-(cyclopropylmethyl)-6-methoxy-1H-pyrrolo[2,3-b]pyridin-2-yl)-1-methyl-1,6,7,8-tetrahydro-H-imidazo[4,5-g]isoquinolin-5-one], for which the IC50 was 101 to 500 nM.

By IC50 is commonly meant the concentration at which inhibition is half-maximal.
